Assays:
RXF 393 = assay: NCI SRB cytotoxicity, Renal RXF 393; type: cell-based, human; details: RXF 393, Renal, 48 h
Protocol: (§1) For each compound, dose response curves for each cell line were measured at a minimum of five concentrations at 10 fold dilutions. A protocol of 48 h continuous drug exposure was used, and a sulforhodamine B (SRB) protein assay was used to estimate cell viability or growth. The concentration causing 50% cell growth inhibition (GI50), total cell growth inhibition (TGI, 0% growth) and 50% cell death (LC50, −50% growth) compared with the control was calculated.

MDA-MB-231/ATCC = assay: NCI SRB cytotoxicity, Breast MDA-MB-231/ATCC; type: cell-based, human; details: 48 h
Protocol: (§2) Biological Activity: In vitro biological activity studies were carried out at National Cancer Institute (U.S.A.).
as §1

SW-620 = assay: NCI SRB cytotoxicity, Colon SW-620; type: cell-based, human; details: SW-620, Colon, 48 h
Protocol: as §2, §1

SNB-19 = assay: NCI SRB cytotoxicity, CNS SNB-19; type: cell-based, human; details: SNB-19, CNS, 48 h
Protocol: as §2, §1

SF-539 = assay: NCI SRB cytotoxicity, CNS SF-539; type: cell-based, human; details: SF-539, CNS, 48 h
Protocol: as §2, §1

A549/ATCC = assay: NCI SRB cytotoxicity, Non-small-cell lung A549/ATCC; type: cell-based, human; details: 48 h
Protocol: as §2, §1

HCT-15 = assay: NCI SRB cytotoxicity, Colon HCT-15; type: cell-based, human; details: HCT-15, Colon, 48 h
Protocol: as §2, §1

MOLT-4 = assay: NCI SRB cytotoxicity, Leukemia MOLT-4; type: cell-based, human; details: MOLT-4, Leukemia, 48 h
Protocol: as §2, §1

U251 = assay: NCI SRB cytotoxicity, CNS U251; type: cell-based, human; details: 48 h
Protocol: as §2, §1

NCI-H226 = assay: NCI SRB cytotoxicity, Non-small-cell lung NCI-H226; type: cell-based, human; details: 48 h
Protocol: as §2, §1

A498 = assay: NCI SRB cytotoxicity, Renal A498; type: cell-based, human; details: 48 h
Protocol: as §2, §1

HL-60(TB) = details: Leukemia, 48 h, SRB
Protocol: as §2, §1

NCI-H522 = assay: NCI SRB cytotoxicity, Non-small-cell lung NCI-H522; type: cell-based, human; details: 48 h
Protocol: as §2, §1

HCT-116 = assay: NCI SRB cytotoxicity, Colon HCT-116; type: cell-based, human; details: HCT-116, Colon, 48 h
Protocol: as §2, §1

SK-MEL-2 = assay: NCI SRB cytotoxicity, Melanoma SK-MEL-2; type: cell-based, human; details: SK-MEL-2, Melanoma, 48 h
Protocol: as §2, §1

HCC-2998 = assay: NCI SRB cytotoxicity, Colon HCC-2998; type: cell-based, human; details: HCC-2998, Colon, 48 h
Protocol: as §2, §1

T-47D = assay: NCI SRB cytotoxicity, Breast T-47D; type: cell-based, human; details: 48 h
Protocol: as §2, §1

OVCAR-4 = assay: NCI SRB cytotoxicity, Ovarian OVCAR-4; type: cell-based, human; details: OVCAR-4, Ovarian, 48 h
Protocol: as §2, §1

SN12C = assay: NCI SRB cytotoxicity, Renal SN12C; type: cell-based, human; details: 48 h
Protocol: as §2, §1

SR = assay: NCI SRB cytotoxicity, Leukemia SR; type: cell-based, human; details: 48 h
Protocol: as §2, §1

LOXIMVI = assay: NCI SRB cytotoxicity, Melanoma LOXIMVI; type: cell-based, human; details: 48 h
Protocol: as §2, §1

SK-OV-3 = assay: NCI SRB cytotoxicity, Ovarian SK-OV-3; type: cell-based, human; details: SK-OV-3, Ovarian, 48 h
Protocol: as §2, §1

| SMILES | Log GI 50 (RXF 393) [mol/L] | Log LC 50 (RXF 393) [mol/L] | Log GI 50 (MDA-MB-231/ATCC) [mol/L] | Log LC 50 (MDA-MB-231/ATCC) [mol/L] | Log LC 50 (SNB-19) [mol/L] | Log LC 50 (SF-539) [mol/L] | Log GI 50 (A549/ATCC) [mol/L] | Log LC 50 (A549/ATCC) [mol/L] | Log GI 50 (HCT-15) [mol/L] | Log LC 50 (HCT-15) [mol/L] | Log LC 50 (MOLT-4) [mol/L] | Log LC 50 (U251) [mol/L] | Log LC 50 (NCI-H226) [mol/L] | Log GI 50 (A498) [mol/L] | Log LC 50 (HL-60(TB)) [mol/L] | Log LC 50 (NCI-H522) [mol/L] | Log GI 50 (HCT-116) [mol/L] | Log LC 50 (HCT-116) [mol/L] | Log LC 50 (T-47D) [mol/L] | Log GI 50 (OVCAR-4) [mol/L] | other results |
| --- | --- | --- | --- | --- | --- | --- | --- | --- | --- | --- | --- | --- | --- | --- | --- | --- | --- | --- | --- | --- | --- |
| COc1cc2c(cc1OCCCN1CCN(CCCOc3cc4c(cc3OC)C(=O)N3CCC[C@H]3C=N4)CC1)N=C[C@@H]1CCCN1C2=O [Compound VIb, 1,1′-{[(bispropane-1,N-diyl)piperazine]dioxy}bis[(11aS)-7-methoxy-1,2,3,11a-tetrahydro-5H-pyrrolo[2,1-c][1,4]benzodiazepin-5-one]] | −5.68 | −4.09 | −4.52 | −4.00 | −4.00 | −4.00 | −4.37 | −4.00 | −4.25 | −4.00 | −4.08 | −4.00 | −4.00 | −5.73 | −4.00 | −4.00 | −4.92 | −4.00 | −4.00 | −4.13 | Log GI 50 (SW-620): −6.23 mol/L; Log LC 50 (SW-620): −4.00 mol/L; Log GI 50 (SNB-19): −5.06 mol/L; Log GI 50 (SF-539): −6.21 mol/L; Log GI 50 (MOLT-4): −6.50 mol/L; Log GI 50 (U251): −5.41 mol/L; Log GI 50 (NCI-H226): −4.34 mol/L; Log LC 50 (A498): −4.00 mol/L; Log GI 50 (HL-60(TB)): −6.66 mol/L; Log GI 50 (NCI-H522): −6.40 mol/L; Log GI 50 (SK-MEL-2): −4.82 mol/L; Log LC 50 (SK-MEL-2): −4.00 mol/L; Log GI 50 (HCC-2998): −4.73 mol/L; Log LC 50 (HCC-2998): −4.04 mol/L; Log GI 50 (T-47D): −5.16 mol/L; Log LC 50 (OVCAR-4): −4.00 mol/L; Log GI 50 (SN12C): −4.44 mol/L; Log LC 50 (SN12C): −4.00 mol/L |
| COc1cc2c(cc1OCCCCCN1CCN(CCCCCOc3cc4c(cc3OC)C(=O)N3CCC[C@H]3C=N4)CC1)N=C[C@@H]1CCCN1C2=O [Compound VId] | −8.00 | −5.09 | −5.42 | −4.00 | −4.00 | −4.00 | −4.66 | −4.00 | −4.25 | −4.00 | −4.00 | −4.00 | −4.00 | −5.00 | −4.00 | −4.00 | −4.00 | −4.00 | −4.00 | −5.38 | Log GI 50 (SR): −5.37 mol/L; Log LC 50 (SR): −4.00 mol/L; Log GI 50 (SW-620): −5.49 mol/L; Log LC 50 (SW-620): −4.00 mol/L; Log GI 50 (SNB-19): −4.00 mol/L; Log GI 50 (SF-539): −5.44 mol/L; Log GI 50 (MOLT-4): −4.79 mol/L; Log GI 50 (U251): −5.47 mol/L; Log GI 50 (NCI-H226): −5.30 mol/L; Log LC 50 (A498): −4.00 mol/L; Log GI 50 (HL-60(TB)): −5.38 mol/L; Log GI 50 (LOXIMVI): −5.61 mol/L; Log LC 50 (LOXIMVI): −4.00 mol/L; Log GI 50 (NCI-H522): −5.47 mol/L; Log GI 50 (HCC-2998): −5.69 mol/L; Log LC 50 (HCC-2998): −4.29 mol/L; Log GI 50 (T-47D): −5.00 mol/L; Log LC 50 (OVCAR-4): −4.00 mol/L; Log GI 50 (SN12C): −5.66 mol/L; Log LC 50 (SN12C): −4.00 mol/L |
| COc1cc2c(cc1OCCCCN1CCN(CCCCOc3cc4c(cc3OC)C(=O)N3CCC[C@H]3C=N4)CC1)N=C[C@@H]1CCCN1C2=O [Compound VIc, 1,1′-{[(bisbutane-1,N-diyl)piperazine]dioxy}bis[(11aS)-7-methoxy-1,2,3,11a-tetrahydro-5H-pyrrolo[2,1-c][1,4]benzodiazepin-5-one]] | −7.54 | −4.00 | −7.47 | −4.43 | −4.44 | −4.00 | −7.23 | −4.00 | −7.92 | −6.37 | −4.00 | −4.41 | −4.00 | −6.89 | −4.00 | −4.00 | −6.42 | −4.00 | −4.00 | −7.11 | Log LC 50 (SR): −5.62 mol/L; Log GI 50 (SK-MEL-2): −7.34 mol/L; Log LC 50 (SK-MEL-2): −4.00 mol/L; Log GI 50 (HCC-2998): −7.95 mol/L; Log LC 50 (HCC-2998): −4.00 mol/L; Log LC 50 (SK-OV-3): −4.00 mol/L; Log LC 50 (OVCAR-4): −4.00 mol/L; Log LC 50 (SN12C): −4.00 mol/L |
| COc1cc2c(cc1OCCN1CCN(CCOc3cc4c(cc3OC)C(=O)N3CCC[C@H]3C=N4)CC1)N=C[C@@H]1CCCN1C2=O [Compound VIa, 1,1′-{[(bisethane-1,N-diyl)piperazine]dioxy}bis[(11aS)-7-methoxy-1,2,3,11a-tetrahydro-5H-pyrrolo[2,1-c][1,4]benzodiazepin-5-one]] | −4.23 | −4.00 | −4.67 | −4.00 | −4.00 | −4.00 | −4.10 | −4.00 | −4.39 | −4.00 | −4.10 | −4.00 | −4.00 | −4.29 | −4.00 | −4.00 | −4.47 | −4.00 | −4.00 | −4.00 | Log GI 50 (SR): −6.68 mol/L; Log LC 50 (SR): −5.21 mol/L; Log GI 50 (SW-620): −4.68 mol/L; Log LC 50 (SW-620): −4.00 mol/L; Log GI 50 (SNB-19): −4.75 mol/L; Log GI 50 (SF-539): −4.97 mol/L; Log GI 50 (MOLT-4): −5.68 mol/L; Log GI 50 (U251): −4.87 mol/L; Log GI 50 (NCI-H226): −4.80 mol/L; Log LC 50 (A498): −4.00 mol/L; Log GI 50 (HL-60(TB)): −5.49 mol/L; Log GI 50 (NCI-H522): −4.94 mol/L; Log GI 50 (SK-MEL-2): −4.57 mol/L; Log LC 50 (SK-MEL-2): −4.00 mol/L; Log GI 50 (T-47D): −4.57 mol/L; Log GI 50 (SK-OV-3): −4.00 mol/L; Log LC 50 (SK-OV-3): −4.00 mol/L; Log LC 50 (OVCAR-4): −4.00 mol/L; Log GI 50 (SN12C): −4.90 mol/L; Log LC 50 (SN12C): −4.00 mol/L |
